{
  "source": "patent US8062671B2",
  "about": "“Oily skin preparation for external use” (Shiseido Co., Ltd., priority 2003, dated 2011)",
  "data": [
    {"biological_target": "urokinase (UK) (Homo sapiens, UniProt P00749)", "assay": "Measuring method of UK blocking rate (S2444 substrate, absorbance 405 nm)", "assay_type": "biochemical", "conditions": "ion concentration 100 ppm; Tris-HCl buffer pH7.5", "protocol": "About the complex powder of this invention, zinc oxide elutes zinc ion and inactivates plasminogen activator. UK is a kind of plasminogen activator. Measuring method of UK blocking rate. […] Thereafter, 20 μL of 12% trichloroacetic acid solution is added to stop the reaction, and powder is filtered. Absorbance of the filtrate at 405 nm is measured to obtain UK activity in an assessment system and UK blocking rate of the sample is calculated.", "units": {"UK blocking rate (%)": "%"}, "values": [
      {"compound": "[Cu+2]", "note": "[Cu^2+]", "UK blocking rate (%)": 36},
      {"compound": "[Li+]", "note": "[Li^+]", "UK blocking rate (%)": 0},
      {"compound": "[Zr+4]", "note": "[Zr^4+]", "UK blocking rate (%)": 45},
      {"compound": "[Ca+2]", "note": "[Ca^2+]", "UK blocking rate (%)": 0},
      {"compound": "[Co+2]", "note": "[Co^2+]", "UK blocking rate (%)": 27},
      {"compound": "[K+]", "note": "[K^+]", "UK blocking rate (%)": 0},
      {"compound": "[Ba+2]", "note": "[Ba^2+]", "UK blocking rate (%)": 0},
      {"compound": "[Zn+2]", "note": "[Zn^2+, zinc ion]", "UK blocking rate (%)": 52},
      {"compound": "[Ni+2]", "note": "[Ni^2+]", "UK blocking rate (%)": 30},
      {"compound": "[Mg+2]", "note": "[Mg^2+]", "UK blocking rate (%)": 0},
      {"compound": "[Mn+2]", "note": "[Mn^2+]", "UK blocking rate (%)": 0},
      {"compound": "[Na+]", "note": "[Na^+]", "UK blocking rate (%)": 0},
      {"compound": "[Ce+3]", "note": "[Ce^3+]", "UK blocking rate (%)": 5},
      {"compound": "[Al+3]", "note": "[Al^3+]", "UK blocking rate (%)": 16}
    ]}
  ]
}
